Here are results for nine compounds from patent publication US7071218B2, “N-substituted heterocycles for the treatment of hypercholesteremia, dyslipidemia and other metabolic disorders; cancer, and other diseases” (Incyte San Diego Incorporated, priority 2001, dated 2006).

The structures appear in SMILES notation.

One data set concerns 3T3-L1 cells. Kind of data set: 3T3-L1 adipocyte differentiation (lipid content), alone or with rosiglitazone (BRL49653). It counts as cell-based, mouse. As to conditions: 7 days of treatment; for lipid accumulation / differentiation of 3T3-L1 cells by the compound alone: 1e-10M to 1e-5M; for inhibition of adipocyte differentiation / lipid accumulation induced by rosiglitazone (BRL49653): in combination with rosiglitazone. From the text: The mouse preadipocyte cell line 3T3-L1 has been extensively used to study adipocyte differentiation. Upon stimulation with differentiating agents, preadipocytes typically undergo one cell cycle expansion and then they are growth arrested and dramatically change their shape to become more rounded cells, loaded with lipids, in a fashion closely reflecting adipogenesis in vivo. In this well-known process of differentiation, peroxisome proliferator activated receptor gamma (PPARγ) and retinoid X receptor (RXR) play a key role. PPARγ binds as an obligatory heterodimer with RXR to specific responsive sequences in the promoter region of target genes. In the particular case of PPARγ/RXR heterodimers, both receptors can be activated via their specific ligands. As a consequence of such activation, adipocyte-specific genes are turned on (C/EBP, aP2, LPL, adipsin, etc) and adipocyte differentiation results. Because lipid accumulation is the endpoint of adipocyte differentiation, the quantification of lipids which have accumulated in cells upon treatment with the compound(s) of interest, will indicate the ability of that compound to trigger adipocyte differentiation. More importantly, the potency of that compound can be estimated as well based on the total amount of lipids accumulated. The amount of lipid measured at the end of the assay for each tested compound is here compared to that of Compound 73 at 0.1 μM, which is considered 100% (see FIG. 11A).
In the particular case of measuring the potential antagonistic activity of some compounds, the putative antagonist is combined together with an agonist (such as the PPARγ agonist BRL49653). Thus, the amount of lipids accumulated in response to BRL49653 (considered as 100% in this case), is decreased by the compound with antagonistic activity (see FIG. 11B).
Materials and Methods: Mouse embryo fibroblast 3T3-L1 cell line, from American Type Culture Collection (ATCC), was used as a model of adipocyte differentiation.
Growing medium (GM): DME Dulbecco's modified Eagle's medium containing 4500 mg/L glucose; 4 mM L-glutamine; 10 U/ml Pen-G; 10 mcg/ml and 10% Calf Serum (CS).
Differentiation medium (DM): DME Dulbecco's modified Eagle's medium containing 4500 mg/L glucose; 4 mM L-glutamine; 10 U/ml Pen-G; 10 mcg/ml and 10% Fetal Calf Serum (FCS). Cells are always kept at 10% CO2.
Cells were seeded at 3,000 cells/well in 96 well-tissue culture plates in growing medium.
Two days after reaching confluence, cells were treated with the different compounds of interest in DM (Day 0). Drugs were replaced every 2–3 days in DM. Differentiation was assessed after 7 days of treatment, by measuring the lipid content in the cells, using the Triglyceride (INFINITY) reagent (Quantitative assay). • Controls: All cells, including control cells (vehicle), are treated with the same volume of dimethyl sulfoxide (DMSO) never exceeding 0.1% final solvent concentration. As a positive control for differentiation, cells were treated with 10 μg insulin per ml and 2.5 μM dexamethasone (Ins/Dex).

A further data set concerns the target T1, AKT1/PKBα (Homo sapiens, UniProt P31749).
T1 construct: purchased Upstate 14-276
Briefly: In vitro assay for AKT1/PKBα kinase activity inhibition. Conditions: at 5 μM, pre-incubation 10 minute at 30° C. Type of data set: biochemical. The procedure:
The assay was performed using a similar approach as described by Standaert, Mary L., et al. J. Biol. Chem. 1999, 274, 25308–25316; and Aman, M. J. et al, J. Biol. Chem. 1998, 273, 33922–33928. The assay was performed using purified recombinant His-tagged AKT1/PKBα enzyme purchased from Upstate catalog # 14-276 following the manufacturer instruction. The assay is to measure phosphotransferase activity in purified His-tagged AKT1/PKBα. The purified enzyme is used to transfer the γ phosphate of [γ-32P]-ATP to a specific substrate, AKT/GSK peptide [RPRAATA] (upstate Catalog # 12-340). The phosphorylated substrate is then separated from the residual [γ-32P]ATP by using P81 phosphocellulose paper accompanied with extensive washing followed by quantitation using scintillation counter. The assay is linear for incubation times for up to 30 minutes and incorporation of up to 20% of total ATP. This enzyme assay is rapid, convenient and specific for AKT/PKB.
For testing the effect of Compound 2 on the AKT kinase activity, 0.3 μg AKT was pre-incubated with 1 μl of different Compound 2 stock concentration to give the final indicated concentration in total volume of 20 μl reaction buffer. As control 0.3 μg AKT was incubated with 1 μl Vehicle or alone in total volume of 20 μl reaction buffer. After a 10 minute incubation at 30° C., the kinase reaction was carried out according to the instruction of the manufacturer.

The next data set deals with LXR. Kind of data set: In vitro transactivation assay in CV-1 cells, antagonism of T0901317-induced Gal-LXR activation. It counts as cell-based. As to conditions: with 1 μM agonist T0901317. The text has this: (§1) In vitro screens such as the transactivation assay can be used to measure the ability of a compound to inhibit a nuclear receptor regulating lipid or carbohydrate uptake, synthesis or metabolism. In the assay described herein compounds can be identified that can inhibit activation of the following nuclear receptors: LXR, PPARα, PPARγ and FXR. This activity can be useful to treat lipid disorders such as hypercholesteremia and obesity.
(§2) Cell line: Kidney Green Monkey CV-1 cells.
(§3) Growing culturing medium: Dulbecco's modified Eagle's medium (DMEM) supplememnted with 10% fetal calf serum (FCS).
(§4) Procedure: CV-1 cells were plated in 48 well-plate culture plates, at a density of 10,000 cells/well, 24 h prior to transfection. One to three hours before transfection, cells were fed with fresh medium. A modified calcium phosphate precipitation procedure was used for transient transfection (Pfahl, M. et al., 1990, Methods in Enzymology 189: 256).
(§5) Typically, 40 ng reporter plasmid and 20 ng of each receptor expression vector were mixed, together with 10 ng of β-galactosidase control plasmid (pCH110, Pharmacia, Piscataway, N.J.) and Bluescript plasmid to obtain a total of 400 ng DNA per well. To this mixture 1 μl of 2.5M CaCl2 and 10 μl of BBS buffer, pH 6.95, were added afterward. […]

The next data set concerns the target T2, PPARγ (Homo sapiens, UniProt P37231).
T2 construct: expressed in transfected cells; host or cells: CV-1 (green monkey kidney) cells, transient calcium phosphate transfection
T2 sequence (P37231 238-503 limits assumed): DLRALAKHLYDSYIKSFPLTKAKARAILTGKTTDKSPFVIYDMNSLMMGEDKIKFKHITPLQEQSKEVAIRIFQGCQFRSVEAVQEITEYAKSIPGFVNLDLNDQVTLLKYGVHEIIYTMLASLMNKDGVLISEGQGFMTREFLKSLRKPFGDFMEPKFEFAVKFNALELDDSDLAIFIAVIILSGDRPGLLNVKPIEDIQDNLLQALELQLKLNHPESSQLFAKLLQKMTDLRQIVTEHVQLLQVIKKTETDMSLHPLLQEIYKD
Briefly: In vitro transactivation assay in CV-1 cells, antagonism of BRL49653-induced Gal-PPARγ activation. As to conditions: with 1 μM agonist BRL49653, dose-dependent. Type of data set: cell-based.
From the text: as §1, §2, §3, §4, §5

The term melting point denotes the temperature, or range, at which the solid turns liquid. What is called inhibition is the drop in the measured response relative to a control, in per cent.

T1 sequence (P31749 whole entry): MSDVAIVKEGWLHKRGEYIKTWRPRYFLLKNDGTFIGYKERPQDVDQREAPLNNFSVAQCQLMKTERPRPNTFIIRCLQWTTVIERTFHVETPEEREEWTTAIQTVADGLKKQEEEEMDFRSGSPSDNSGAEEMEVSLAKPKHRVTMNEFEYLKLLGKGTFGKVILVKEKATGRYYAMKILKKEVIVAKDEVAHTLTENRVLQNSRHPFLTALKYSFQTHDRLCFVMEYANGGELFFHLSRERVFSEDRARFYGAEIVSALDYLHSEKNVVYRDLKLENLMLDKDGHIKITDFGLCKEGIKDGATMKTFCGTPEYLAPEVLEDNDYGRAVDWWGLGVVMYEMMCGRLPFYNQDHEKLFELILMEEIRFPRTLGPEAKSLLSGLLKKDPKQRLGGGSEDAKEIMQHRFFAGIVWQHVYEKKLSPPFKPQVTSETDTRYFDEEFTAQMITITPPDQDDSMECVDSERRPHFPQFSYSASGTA

As to `COc1ccc(/C=C2\SC(=S)N(CC(=O)O)C2=O)cc1-c1cc2c(cc1C)C(C)(C)CCC2(C)C` [Compound 1, {5-[4-Methoxy-3-(3,5,5,8,8-pentamethyl-5,6,7,8-tetrahydro-naphthalen-2-yl)-benzylidene]-4-oxo-2-thioxo-thiazolidin-3-yl}-acetic acid], in the data set on 3T3-L1 cells, the “lipid accumulation / differentiation of 3T3-L1 cells by the compound alone” value (from here on “lipid accumulation / differentiation”) is given as “lacked that ability” and the “inhibition of adipocyte differentiation / lipid accumulation induced by rosiglitazone (BRL49653)” value was “potently inhibited”.

On to `Cc1cc2c(cc1-c1cc(/C=C3\SC(=S)N(CC(=O)O)C3=O)ccc1OC(F)(F)F)C(C)(C)CCC2(C)C` [Compound 2, {5-[4-Trifluoromethoxy-3-(3,5,5,8,8-pentamethyl-5,6,7,8-tetrahydronaphthalen-2-yl)-benzylidene]-4-oxo-2-thioxo-thiazolidin-3-yl}-acetic acid], for which, in the data set with 3T3-L1 cells, the “lipid accumulation / differentiation” value is “lacked that ability” and the “inhibition of adipocyte differentiation / lipid accumulation induced by rosiglitazone (BRL49653)” value is given as “potently inhibited”. In addition, the “inhibition of AKT activity compared to Control or Vehicle” value at AKT1/PKBα was “showed inhibition”.

`COc1ncc(/C=C2\SC(=S)N(CC(=O)O)C2=O)cc1-c1cc2c(cc1C)C(C)(C)CCC2(C)C` [Compound 3, {5-[6-Methoxy-5-(3,5,5,8,8-pentamethyl-5,6,7,8-tetrahydro-naphthalen-2-yl)-pyridin-3-ylmethylene]-4-oxo-2-thioxo-thiazolidin-3-yl}-acetic acid]: the “inhibition of AKT activity compared to Control or Vehicle” value on AKT1/PKBα is on record as “showed inhibition”.

Regarding `COc1ccc(/C=C2\SC(=O)N(CCc3ccccn3)C2=O)cc1-c1cc2c(cc1C)C(C)(C)CCC2(C)C` [Compound 6, 5-[4-Methoxy-3-(3,5,5,8,8-pentamethyl-5,6,7,8-tetrahydro-naphthalen-2-yl)-benzylidene]-3-(2-pyridin-2-yl-ethyl)-thiazolidine-2,4-dione], the melting point was 170 to 171 °C.

Regarding `COc1cc2c(cc1-c1c(/C=C3\SC(=S)N(CC(=O)O)C3=O)cc(-c3ccccc3)cc1OC)C(C)(C)CCC2(C)C` [Compound 8, {5-[5-Phenyl-3-methoxy-2-(3-methoxy-5,5,8,8-tetramethyl-5,6,7,8-tetrahydro-naphthalen-2-yl)-benzylidene]-4-oxo-2-thioxo-thiazolidin-3-yl}-acetic acid], the “antagonism of T0901317-induced LXR activation (in words)” value with LXR was “only antagonize the activation activity of BRL49653 for PPARγ”. The same compound had an inhibition at 10 µM at PPARγ of 80 to 90%. Moreover, in the data set on 3T3-L1 cells, the “lipid accumulation / differentiation” value is “lacked the ability to differentiate 3T3-L1 cells by themselves” and the “inhibition of adipocyte differentiation / lipid accumulation induced by rosiglitazone (BRL49653)” value is “strongly inhibited”.

Take `CN(C)c1ccc(/C=C2\SC(=S)N(CC(=O)O)C2=O)cc1-c1cc2c(cc1N(C)C)C(C)(C)CCC2(C)C` [Compound 10, {5-[4-Dimethylamino-3-(3-dimethylamino-5,5,8,8-tetramethyl-5,6,7,8-tetrahydro-naphthalen-2-yl)-benzylidene]-4-oxo-2-thioxo-thiazolidin-3-yl}-acetic acid]: the “inhibition of AKT activity compared to Control or Vehicle” value against AKT1/PKBα was “showed inhibition”.

With `CCOc1ccc(-c2ccc(OC)c(C(C)(C)C)c2)cc1/C=C1\SC(=S)N(CC(=O)O)C1=O` [Compound 67], the “inhibition of AKT activity compared to Control or Vehicle” value on AKT1/PKBα is “showed inhibition”.

For `COc1ccc(/C=C2\SC(=S)NC2=O)cc1-c1cc2c(cc1C)C(C)(C)CCC2(C)C` [Compound 71, reference compound], the “lipid accumulation / differentiation” value in the data set on 3T3-L1 cells is listed as “induced lipid accumulation”.

As for `COc1cc2c(cc1-c1c(/C=C3\SC(=S)N(CC(=O)O)C3=O)cc(-c3ccccc3)cc1OC)C(C)(C)CCC2(C)C` [Compound 72, reference compound], the “lipid accumulation / differentiation” value with 3T3-L1 cells was “induced lipid accumulation”.
